Source: patent US8518885B2, “Heterocyclic peptide ketoamides” (Georgia Tech Research Corporation, priority 2008, dated 2013)

Tests used:
[1] = target: μI-II (Rattus norvegicus, UniProt P97571); test: Fluorimetric FRET-substrate assay of μI-II inhibition; format: biochemical; details: inhibitor 50 μM; 125 nM μI-II; 1.3 μM (EDANS)-EPLFAERK-(DABCYL); 4 mM CaCl2; FIG. 1B
Procedure: (§1) FIG. 1 is a pair of graphs showing the inhibitory effect of Z-Leu-Abu-CONH—(CH2)3-adenin-9-yl, and Z-Leu-Abu-CONH—(CH2)3-(4-methylpiperazin-1-yl) on m-calpain (FIG. 1A) and μI-II (FIG. 1B). Duplicate assays were performed by adding 1.3 μM (EDANS)-EPLFAERK(SEQ ID NO:1)-(DABCYL) (A), 125 nM calpain (B), and 4 mM CaCl2 (C), then averaged to yield the plots shown. Autolytic inactivation of m-calpain, but not μI-II, was observed when no inhibitor was added (X). Immediately following addition of each inhibitor (D), the increase in fluorescence intensity was attenuated.
(§2) Enzymatic activity was monitored in real-time using a 1.5 mL quartz cuvette and a Perkin-Elmer LS50-B Luminescence Spectrophotometer. Duplicate assays were performed with 1.3 μM (EDANS)-EPLFAERK(SEQ ID NO:1)-(DABCYL) and 125 nM μI-II or m-calpain in a buffer solution containing 50 mM HEPES-HCl (pH 7.7) and 10 mM DTT. The reaction was initiated 420 seconds after mixing by the addition of 4 mM CaCl2 and monitored at excitation and emission wavelengths of 335 nm and 500 nm, respectively. After a waiting period of 100 seconds, the inhibitor solution (either Z-Leu-Abu-CONH—(CH2)3-adenin-9-yl, or Z-Leu-Abu-CONH—(CH2)3-(4-methylpiperazin-1-yl) dissolved in DMSO) was added at a concentration of 1 μM (for the m-calpain assays) or 50 μM (for the μI-II assays). […]

[2] = target: T1, m-calpain (Rattus norvegicus, UniProt Q07009); test: Fluorimetric FRET-substrate assay of m-calpain inhibition; format: biochemical; details: inhibitor 1 μM; 125 nM m-calpain; 1.3 μM (EDANS)-EPLFAERK-(DABCYL); 4 mM CaCl2; FIG. 1A
T1 sequence (Q07009 1-700): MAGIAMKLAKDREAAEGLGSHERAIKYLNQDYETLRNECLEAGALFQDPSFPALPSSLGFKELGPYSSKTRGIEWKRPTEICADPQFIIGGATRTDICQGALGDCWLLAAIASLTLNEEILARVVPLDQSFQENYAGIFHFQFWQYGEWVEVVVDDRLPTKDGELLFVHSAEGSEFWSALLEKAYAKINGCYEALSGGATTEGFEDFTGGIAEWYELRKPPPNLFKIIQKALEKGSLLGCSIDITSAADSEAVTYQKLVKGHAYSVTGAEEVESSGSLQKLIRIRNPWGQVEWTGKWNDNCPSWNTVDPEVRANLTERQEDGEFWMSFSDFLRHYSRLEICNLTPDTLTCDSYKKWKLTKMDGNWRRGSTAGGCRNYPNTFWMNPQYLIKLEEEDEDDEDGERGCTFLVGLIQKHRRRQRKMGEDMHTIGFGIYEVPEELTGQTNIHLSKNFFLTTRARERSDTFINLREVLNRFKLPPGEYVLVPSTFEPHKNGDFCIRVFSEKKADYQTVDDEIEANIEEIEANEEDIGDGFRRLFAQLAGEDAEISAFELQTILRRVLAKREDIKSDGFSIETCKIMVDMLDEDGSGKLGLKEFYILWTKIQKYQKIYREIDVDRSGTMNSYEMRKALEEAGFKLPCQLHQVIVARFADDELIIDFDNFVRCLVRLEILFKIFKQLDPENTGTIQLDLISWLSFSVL
T1 sequence (Q64537 87-270 partner limits assumed): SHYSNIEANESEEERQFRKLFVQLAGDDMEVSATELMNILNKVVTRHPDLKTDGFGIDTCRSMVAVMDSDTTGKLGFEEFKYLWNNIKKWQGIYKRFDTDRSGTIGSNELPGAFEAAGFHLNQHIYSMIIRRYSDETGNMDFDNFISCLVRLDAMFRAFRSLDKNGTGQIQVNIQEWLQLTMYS
Procedure: as §1, §2

[3] = target: T2, calpain I (Homo sapiens, UniProt P07384); details: literature statement; cited from earlier work
T2 sequence (P07384 1-714): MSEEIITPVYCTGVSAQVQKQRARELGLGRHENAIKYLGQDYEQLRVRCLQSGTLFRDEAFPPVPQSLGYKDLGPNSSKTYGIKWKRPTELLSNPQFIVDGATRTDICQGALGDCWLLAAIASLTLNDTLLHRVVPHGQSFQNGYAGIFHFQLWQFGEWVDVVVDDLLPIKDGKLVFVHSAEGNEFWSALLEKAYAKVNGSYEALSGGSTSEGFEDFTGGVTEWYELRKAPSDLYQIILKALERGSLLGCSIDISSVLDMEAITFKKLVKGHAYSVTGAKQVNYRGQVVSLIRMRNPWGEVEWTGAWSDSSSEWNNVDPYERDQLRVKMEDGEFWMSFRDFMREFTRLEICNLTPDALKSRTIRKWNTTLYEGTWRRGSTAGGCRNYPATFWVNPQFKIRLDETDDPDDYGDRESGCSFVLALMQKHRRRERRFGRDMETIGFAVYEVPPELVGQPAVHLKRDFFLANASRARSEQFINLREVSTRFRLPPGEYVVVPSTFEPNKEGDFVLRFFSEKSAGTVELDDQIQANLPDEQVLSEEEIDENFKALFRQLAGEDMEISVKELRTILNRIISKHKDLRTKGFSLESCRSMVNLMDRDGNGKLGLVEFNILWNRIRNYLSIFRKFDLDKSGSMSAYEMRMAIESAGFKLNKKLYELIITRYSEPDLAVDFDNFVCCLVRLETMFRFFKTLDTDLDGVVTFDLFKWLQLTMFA
T2 sequence (P04632 1-268 partner): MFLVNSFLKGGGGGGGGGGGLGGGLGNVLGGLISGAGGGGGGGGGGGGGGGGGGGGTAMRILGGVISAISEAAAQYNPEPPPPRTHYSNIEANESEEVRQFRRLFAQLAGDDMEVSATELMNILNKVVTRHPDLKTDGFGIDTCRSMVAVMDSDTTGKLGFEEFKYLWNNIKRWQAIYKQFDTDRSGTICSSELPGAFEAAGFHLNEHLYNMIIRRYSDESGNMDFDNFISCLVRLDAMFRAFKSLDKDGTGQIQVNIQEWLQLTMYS

[4] = tested on: calpain II; details: literature statement; cited from earlier work
[5] = tested on: other cysteine proteases such as cathepsins; details: literature statement; cited from earlier work

Chain of μI-II (P97571 55-354 limits assumed): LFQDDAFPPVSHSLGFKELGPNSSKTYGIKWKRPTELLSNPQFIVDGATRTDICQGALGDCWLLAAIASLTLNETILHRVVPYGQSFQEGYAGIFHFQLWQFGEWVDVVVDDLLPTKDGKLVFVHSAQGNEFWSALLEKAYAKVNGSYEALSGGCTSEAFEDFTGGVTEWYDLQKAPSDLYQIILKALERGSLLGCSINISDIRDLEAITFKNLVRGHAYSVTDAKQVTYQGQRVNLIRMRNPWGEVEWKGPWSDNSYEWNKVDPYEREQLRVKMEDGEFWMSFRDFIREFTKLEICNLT

Compound | attenuation of the increase in fluorescence intensity (cleavage of FRET substrate) by μI-II [1] | attenuation of the increase in fluorescence intensity (cleavage of FRET substrate) by m-calpain [2] | inhibition of calpain I [3] | inhibition of calpain II [4] | inhibitory activity toward other cysteine proteases such as cathepsins [5]
CCC(NC(=O)[C@H](CC(C)C)NC(=O)OCc1ccccc1)C(=O)C(=O)NCCCn1cnc2c(N)ncnc21 (stereo partly drawn) [Z-Leu-Abu-CONH—(CH2)3-adenin-9-yl, 3-(Benzyloxycarbonyl-L-leucylamino)-N-(3-(6-amino-9H-purin-9-yl)propyl)-2-oxopentanamide] | more distinct attenuation of fluorescence | more distinct attenuation of fluorescence | – | – | –
CCC(NC(=O)[C@H](CC(C)C)NC(=O)OCc1ccccc1)C(=O)C(=O)NCCCN1CCN(C)CC1 (stereo partly drawn) [3-(Benzyloxycarbonyl-L-leucylamino)-N-(3-(4-methylpiperazin-1-yl)propyl)-2-oxopentanamide] | immediately attenuated | immediately attenuated | – | – | –
CCC(NC(=O)[C@H](CC(C)C)NC(=O)OCc1ccccc1)C(=O)C(=O)NCCCN1CCOCC1 (stereo partly drawn) [AK295, Z-Leu-Abu-CONH—(CH2)3-4-morpholinyl] | – | – | potent transition-state inhibitor | potent transition-state inhibitor | some inhibitory activity
